The structures appear in SMILES notation.

Sequence of Beta-secretase 1 (P56817 whole entry): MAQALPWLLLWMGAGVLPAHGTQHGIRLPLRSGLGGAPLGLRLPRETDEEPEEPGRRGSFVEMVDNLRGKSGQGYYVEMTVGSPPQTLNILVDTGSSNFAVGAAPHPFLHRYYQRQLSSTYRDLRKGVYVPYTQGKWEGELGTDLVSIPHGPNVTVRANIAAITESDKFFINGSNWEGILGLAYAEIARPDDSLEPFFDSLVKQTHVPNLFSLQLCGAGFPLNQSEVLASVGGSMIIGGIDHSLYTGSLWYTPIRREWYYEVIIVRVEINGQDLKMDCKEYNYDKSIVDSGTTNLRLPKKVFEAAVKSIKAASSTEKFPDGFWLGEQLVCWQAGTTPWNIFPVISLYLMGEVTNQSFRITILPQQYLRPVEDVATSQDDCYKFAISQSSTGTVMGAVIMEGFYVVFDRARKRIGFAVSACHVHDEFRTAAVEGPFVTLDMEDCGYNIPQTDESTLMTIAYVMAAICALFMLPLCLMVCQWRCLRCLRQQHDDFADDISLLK

This experiment has as its target Beta-secretase 1 (Homo sapiens, UniProt P56817). Description: Inhibition of human Beta-secretase 1.
In turn, `CC(=O)N[C@@H](CCC(=O)O)C(=O)N[C@@H](Cc1ccccc1)[C@@H](O)CC(=O)N[C@@H](CC1CCCCC1)[C@@H](O)CC(=O)N[C@H](C(=O)NCc1ccc(C(=O)O)cc1)C(C)C` showed an IC50 of 42000 nM. The same measure for `CC(C)[C@H](NC(=O)C[C@H](O)[C@H](CC1CCCCC1)NC(=O)C[C@H](O)[C@@H](N)Cc1ccccc1)C(=O)NCc1ccc(C(=O)O)cc1`: more than 100000 nM; for `CCC(C)C[C@H](NC(=O)[C@H](CC(C)C)NC(C)=O)[C@@H](O)CC(=O)NC(CC[S+](C)[O-])[C@@H](O)CC(=O)N[C@H](C(=O)NCc1ccc(C(=O)O)cc1)C(C)C` (some centres not stated): 34000 nM; for `CCC(C)C[C@H](NC(=O)[C@H](CC(C)C)NC(C)=O)[C@@H](O)CC(=O)NC(CCSC)[C@@H](O)CC(=O)N[C@H](C(=O)NCc1ccc(C(=O)O)cc1)C(C)C` (some centres not stated): 460 nM.

Take `CC(C)[C@H](NC(=O)C[C@H](O)[C@H](CC1CCCCC1)NC(=O)C[C@H](O)[C@H](Cc1ccccc1)NC(=O)[C@@H]1CCCN1)C(=O)NCc1ccc(C(=O)O)cc1`: it took 1300 nM to reach half-maximal inhibition (IC50). The same measure for `CC(=O)NCC(=O)N[C@@H](Cc1ccccc1)[C@@H](O)CC(=O)N[C@@H](CC1CCCCC1)[C@@H](O)CC(=O)N[C@H](C(=O)NCc1ccc(C(=O)O)cc1)C(C)C`: 9000 nM; for `CC(=O)N[C@@H](CC(C)C)C(=O)N[C@@H](Cc1ccccc1)[C@@H](O)CC(=O)N[C@@H](CC1CCCCC1)[C@@H](O)CC(=O)N[C@H](C(=O)NCc1ccc(C(=O)O)cc1)C(C)C` (stereo in doubt; 13): 50 nM. Under `CC(=O)N[C@@H](Cc1ccccc1)C(=O)N[C@@H](Cc1ccccc1)[C@@H](O)CC(=O)N[C@@H](CC1CCCCC1)[C@@H](O)CC(=O)N[C@H](C(=O)NCc1ccc(C(=O)O)cc1)C(C)C` stands 5600 nM; under `CC(C)[C@H](NC(=O)C[C@H](O)[C@H](CC1CCCCC1)NC(=O)C[C@H](O)[C@H](Cc1ccccc1)NC(=O)OC(C)(C)C)C(=O)NCc1ccc(C(=O)O)cc1`, more than 100000 nM. Compound `CC(=O)N[C@@H](CC(C)C)C(=O)N[C@@H](Cc1ccccc1)[C@@H](O)CC(=O)N[C@@H](CC1CCCCC1)[C@@H](O)CC(=O)N[C@H](C(=O)NCc1ccc(C(=O)O)cc1)C(C)C` (stereo in doubt; 15) registered an IC50 of 670 nM.

Turning to `CCC(C)C[C@H](NC(=O)[C@H](CC(C)C)NC(C)=O)[C@@H](O)CC(=O)N[C@@H](Cc1ccccc1)[C@@H](O)CC(=O)N[C@H](C(=O)NCc1ccc(C(=O)O)cc1)C(C)C` (some centres not stated), the IC50 stood at 21 nM. The same measure for `CCC(C)C[C@H](NC(=O)C[C@H](O)[C@H](Cc1ccccc1)NC(=O)[C@H](CC(C)C)NC(C)=O)[C@@H](O)CC(=O)N[C@H](C(=O)NCc1ccc(C(=O)O)cc1)C(C)C` (some centres not stated): 650 nM.

By IC50 is commonly meant the concentration at which inhibition is half-maximal. A low value points to greater potency.

Values taken from ChEMBL document CHEMBL1147464, “Synthesis and SAR of bis-statine based peptides as BACE 1 inhibitors” (Bioorg Med Chem Lett, 2004).
